For orientation: EC50 means the concentration giving half of the maximal effect. The term IC50 denotes the concentration that gives 50% inhibition.

Data on 28 molecules can be found in US20230339915A1 (Vertex Pharmaceuticals Incorporated, priority 2020, published 2023).

The target of assay [1] is NL20 human bronchial epithelial cells expressing human Z-AAT (Homo sapiens (Human), UniProt P01009, E366K). Briefly: AAT Function Assay (MSD Assay NL20-SI Cell Line). In kind it is cell-based. The conditions noted are these: functionally active AAT (AAT-hNE complex, MSD) in supernatant of NL20 cells expressing human Z-AAT; read-out: NL20 Functional EC50. The method, then:
A. AAT Function Assay (MSD Assay NL20-SI Cell Line)
Alpha-1 antitrypsin (AAT) is a SERpIN (serine protease inhibitor) that inactivates enzymes by binding to them covalently. This assay measured the amount of functionally active AAT in a sample in the presence of the disclosed Compounds 1-227 by determining the ability of AAT to form an irreversible complex with human neutrophil Elastase (hNE). In practice, the sample (cell supernatant, blood sample, or other) was incubated with excess hNE to allow AAT-Elastase complex to be formed with all functional AAT in the sample. This complex was then captured to a microplate coated with an anti-AAT antibody. The complex captured to the plate was detected with a labeled anti-Elastase antibody and quantitated using a set of AAT standards spanning the concentration range present in the sample. Meso Scale Discovery (MSD) plate reader, Sulfo-tag labeling, and microplates were used to provide high sensitivity and wide dynamic range.
Instrument(S): • Meso Sector S600 • Bravo • Washer dispenser • Multidrop Combi
Day 1 Cell Culture • 1. Harvest NL20 human bronchial epithelial cells expressing human Z-AAT in OptiMEM™ containing Pen/Strep (P/S) • 2. Seed at 16,000 cells/well in 30 μL (384 well plate) • 3. Centrifuge plates briefly up to speed (1200 rpm) and place into 37° C. incubator overnight
Day 2: Compound Addition and Coating Plates with Capture Antibody
Compound Addition: • 1. Dispense 40 μL of OptiMEM™ (P/S) with doxycycline (1:1000 stock=0.1 μM final) to each well of the compound plate using a multidrop Combi in hood • 2. Remove cell plate from incubator, flip/blot and take immediately to Bravo to transfer compounds • 3. Return plates to incubator overnight
Coat MSD Plates • 1. Dilute capture antibody (Polyclonal Goat anti-AAT) to 5 μg/mL (1:200) in PBS (no BSA). • 2. Dispense 25 μL of diluted capture antibody into all wells of MSD 384-well High Bind plate using the Multidrop equipped with a standard cassette. • 3. Incubate overnight at 4° C.
Prepare Blocker A (BSA) Solutions • 1. Prepare solution of 5% MSD Blocker A (BSA) following the manufacturer's instructions. • 2. Further dilute the 5% MSD Blocker A in PBS to 1% (Blocker A) as needed.
Block Plates • 1. Wash plate 1× with 50 μL Wash buffer (PBS+0.5% Tween 20), and adds 35 μL 5% Block A buffer to block non-specific binding on washer dispenser • 2. Rotate plates on shaker for 1 hour at 600 rpm
Prepare M-AA T Standards • 1. Dilute M-AAT stock to 1.6 μg/mL in 1% BSA Blocker A (Stock in −70° C.); then prepare 12×1:2 serial dilutions in 1% Blocker A • 2. The top starting final concentration on MSD plate is 320 ng/mL. These dilutions correspond to a final concentration of 320, 160, 80, 40, 20, 10, 5, 2.5, 1.25, 0.625, 0.312, 0.156 ng/mL.
Dilution Plate • 1. Add 80 μL of 1% Assay buffer to all wells except columns 1/24 (standards) with Multidrop Combi • 2. Add diluted standards to columns 1 and 24 • 3. Centrifuge dilution plates 1200 rpm briefly
Cell Plate • 1. Aspirate columns which will have the standards from the cell plates in the hood using 16-pin aspirator
Prepare Human Neutrophil Elastase (hNE) • 1. Prepare 1 μg/mL Human Neutrophil Elastase by diluting in 1% Blocker A. • a. Small 100 μg vial—add 1 mL PBS (100 μg/mL) • i. This can then be diluted 1:100 in 1% Assay Buffer for a final 1 μg/mL concentration
MSD—add hNE (20 μL/well) • 1. After the MSD plate has blocked for at least 1 hour, wash plate 1× with 50 μL Wash buffer (PBS+0.5% Tween 20) and then add 20 μL hNE to each well
Bravo—Cell Plate—Dilution Plate—MSD Plate
Using the Bravo aspirate 10 μL from the cell plate, transfer to the dilution plate (9-fold dilution) • 1. Mix 25 μL 3×, then aspirate 5 μL, transfer to MSD plate (5-fold dilution) • 2. Mix 10 μL 3×. Total dilution is 45 fold. • 3. Shake plates at 600 rpm for 1.5 hours
Add Functional Detection hNE Antibody • 1. Wash plate 1× with wash buffer • 2. […]

Assay [2] addresses purified Z-AAT protein from human plasma (Homo sapiens (Human), UniProt P01009, E366K). Briefly: Biochemical Assay (Z-AAT Elastase Activity Assay). The conditions noted are these: purified Z-AAT pre-incubated with compound 1 hour, then human neutrophil elastase and fluorescent substrate. The text has this:
B. Biochemical Assay (Z-AAT Elastase Activity Assay)
This assay measured the modulation of Compounds 1-227 on Z-AAT SERpIN activity using purified Z-AAT protein and purified human neutrophil elastase (hNE). Normally, when active monomeric Z-AAT encounters a protease such as trypsin or elastase, it forms a 1:1 covalent “suicide” complex in which both the AAT and protease are irreversibly inactivated. However, compounds binding to Z-AAT can lead to a decrease in SERpIN activity. In such cases, when a protease encounters compound-bound Z-AAT, the protease cleaves and inactivates Z-AAT without itself being inactivated.
Reagents • PBS buffer (media prep)+0.01% BRIJ35 detergent (Calbiochem catalog #203728) Opti-MEM media (Fisher 11058-021) • Human neutrophil elastase (hNE, Athens Research #16-14-051200) • 3.4 μM stock (0.1 mg/mL) prepared in 50 mM Na Acetate, pH 5.5, 150 mM NaCl, stored at −80° C. • Elastase substrate V (ES V, fluorescent peptide substrate MeOSuc-Ala-Ala-Pro-Val-AMC, Calbiochem catalog #324740) • 20 mM stock in DMSO, stored at −20° C. • Purified Z-AAT protein from human plasma; • 12.9 μM (0.67 mg/mL) Z-AAT Vertex Cambridge Sample 4942, from patient • #061-SSN, stored at −80 C
Plates • Corning 4511 (384 well black low volume)
Instruments • PerkinElmer® EnVision™
Pre-Incubation of Z-AAT with Compounds • 1. 7.5 μL of Z-AAT (20 nM) was incubated with compounds 1-227 in a GCA plate for 1 hour at room temperature
Addition of hNE • 1. 7.5 ul of HNE solution (3 nM in PBS+0.01% BRIJ35) added into GCA plate • 2. Incubate plate for 30 minutes to allow Z-AAT/HNE suicide complex formation.
Addition of Substrate and Read Plate on PE Envision • 1. 7.5 μL of substrate (300 μM solution of elastase substrate (ES V) in PBS+0.01% BRIJ35) dispensed per well into GCA plate • 2. Immediately read on Envision.

Molecules are shown by their SMILES.

Chain of purified Z-AAT protein from human plasma (P01009 25-418 E366K limits assumed): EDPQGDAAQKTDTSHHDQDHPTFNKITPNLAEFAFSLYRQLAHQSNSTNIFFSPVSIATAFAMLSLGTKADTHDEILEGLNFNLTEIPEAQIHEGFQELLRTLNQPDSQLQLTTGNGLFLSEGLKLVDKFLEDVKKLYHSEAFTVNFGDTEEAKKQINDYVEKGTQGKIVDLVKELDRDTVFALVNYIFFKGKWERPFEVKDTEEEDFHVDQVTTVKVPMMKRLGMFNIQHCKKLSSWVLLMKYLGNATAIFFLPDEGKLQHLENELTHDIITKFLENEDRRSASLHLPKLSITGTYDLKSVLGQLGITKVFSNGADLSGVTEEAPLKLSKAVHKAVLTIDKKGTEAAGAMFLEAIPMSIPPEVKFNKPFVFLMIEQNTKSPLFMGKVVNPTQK
Chain of NL20 human bronchial epithelial cells expressing human Z-AAT (P01009 25-418 E366K limits assumed): as above

For the molecule `O=C(O)[C@]1(C(F)(F)F)C[C@@H](c2c(C3CCOCC3)n(-c3ccc(F)c(Cl)c3)c3ccc(O)cc32)C1` [Compound 37], in assay [1], the EC50 lay within 500 to 2000 nM. The half-maximal inhibitory concentration (IC50) in assay [2] is over 5000 nM.
For `O=C(O)[C@]1(C(F)(F)F)C[C@H](c2c(C3CCOCC3)n(-c3ccc(F)c(Cl)c3)c3ccc(O)cc32)C1` [Compound 38], in that order: over 2000 nM and over 30000 nM.
As for `C[C@]1(C(=O)O)C[C@H](c2c(C3CCOCC3)n(-c3ccc(F)c(F)c3)c3ccc(O)cc32)C1` [Compound 39], the EC50 in assay [1] is over 2000 nM. The 50% inhibitory concentration (IC50) in assay [2] was over 30000 nM.
In the case of `C[C@]1(C(=O)O)C[C@@H](c2c(C3CCOCC3)n(-c3ccc(F)c(F)c3)c3ccc(O)cc32)C1` [Compound 40], the concentration for a half-maximal effect (EC50) in assay [1] was over 2000 nM. The IC50 in assay [2] is over 30000 nM.
With `O=C(O)[C@H]1CC2(C1)C[C@H](c1c(C3CCOCC3)n(-c3ccc(F)c(F)c3)c3ccc(O)cc31)C2` (some centres unmarked) [Compound 41], the EC50 in assay [1] lay within 500 to 2000 nM. Moreover, in assay [2], the half-maximal inhibitory concentration (IC50) was over 30000 nM.
For `O=C(O)[C@H]1CC2(C1)C[C@H](c1c(C3CCOCC3)n(-c3ccc(F)c(F)c3)c3ccc(O)cc31)C2` (some centres unmarked) [Compound 42], in that order: 500 to 2000 nM and over 30000 nM.
For `Cc1cc(-n2c(C3CCS(=O)(=O)CC3)c([C@H]3C[C@@](C(=O)O)(C(F)(F)F)C3)c3cc(O)ccc32)ccc1F` [Compound 43], in that order: over 2000 nM and over 30000 nM.
Turning to `Cc1cc(-n2c(C3CCS(=O)(=O)CC3)c(C[C@H]3CC[C@H](C(=O)O)CC3)c3cc(O)ccc32)ccc1F` [Compound 44], the EC50 in assay [1] is over 2000 nM. In addition, the half-maximal inhibitory concentration (IC50) in assay [2] is over 30000 nM.
Take `O=C(O)[C@H]1C[C@H](c2c(C3CCOCC3)n(-c3ccc(F)cc3)c3ccc(O)cc32)C1` [Compound 45]: in assay [1], the EC50 is over 2000 nM. Further, the half-maximal inhibitory concentration (IC50) in assay [2] was over 30000 nM.
For `O=C(O)[C@H]1C[C@@H](c2c(C3CCOCC3)n(-c3ccc(F)cc3)c3ccc(O)cc32)C1` [Compound 46], in that order: over 2000 nM and over 30000 nM.
In the same order, the values of `Cc1cc(-n2c(C3CCS(=O)(=O)CC3)c(C3CC4(CC(C(=O)O)C4)C3)c3cc(O)ccc32)ccc1F` (centres unmarked) [Compound 47] are over 2000 nM and over 30000 nM.
With `C[C@]1(C(=O)O)C[C@H](c2c(C3CCOCC3)n(-c3ccc(F)cc3)c3ccc(O)cc32)C1` [Compound 48], the 50% effective concentration (EC50) in assay [1] was over 2000 nM. Also, the half-inhibitory concentration (IC50) in assay [2] was over 30000 nM.
In the same order, the values of `C[C@]1(C(=O)O)C[C@@H](c2c(C3CCOCC3)n(-c3ccc(F)cc3)c3ccc(O)cc32)C1` [Compound 49] are over 2000 nM and over 30000 nM.
For `O=C(O)[C@H]1CC2(C1)C[C@H](c1c(C3CCOCC3)n(-c3ccc(F)cc3)c3ccc(O)cc31)C2` (some centres unmarked) [Compound 50], in that order: 500 to 2000 nM and over 30000 nM.
Consider `O=C(O)[C@H]1CC2(C1)C[C@H](c1c(C3CCOCC3)n(-c3ccc(F)cc3)c3ccc(O)cc31)C2` (some centres unmarked) [Compound 51], for which, in assay [1], the half-maximal effective concentration (EC50) lay within 500 to 2000 nM. Further, in assay [2], the IC50 was over 30000 nM.
In the same order, the values of `C[C@]1(C(=O)O)C[C@@H](c2c(C3CCOCC3)n(-c3ccccc3)c3ccc(O)cc32)C1` [Compound 52] are over 2000 nM and over 30000 nM.
`O=C(O)[C@]1(C(F)(F)F)C[C@@H](c2c(C3CCOCC3)n(-c3ccc(F)c(F)c3)c3ccc(O)cc32)C1` [Compound 53]: in assay [1], the half-maximal effective concentration (EC50) is over 2000 nM. Further, in assay [2], the 50% inhibitory concentration (IC50) is over 30000 nM.
As for `O=C(O)C1CC2(C1)CC(c1c(C3CCOCC3)n(-c3ccccc3)c3ccc(O)cc13)C2` (centres unmarked) [Compound 54], in assay [1], the EC50 was over 2000 nM. Moreover, the half-maximal inhibitory concentration (IC50) in assay [2] is over 30000 nM.
As for `Cc1cc(-n2c(C3CCOCC3)c([C@H]3CC[C@@H](C(=O)O)CC3)c3cc(O)ccc32)ccc1F` [Compound 55], in assay [1], the half-maximal effective concentration (EC50) is over 2000 nM. The half-inhibitory concentration (IC50) in assay [2] was over 30000 nM.
Turning to `Cc1cc(-n2c(C3CCOCC3)c([C@H]3CC[C@H](C(=O)O)CC3)c3cc(O)ccc32)ccc1F` [Compound 56], the EC50 in assay [1] lay in the range of 500 to 2000 nM. Further, the 50% inhibitory concentration (IC50) in assay [2] is over 30000 nM.
As to `CC(C)c1c([C@H]2CC3(C[C@H](C(=O)O)C3)C2)c2cc(O)ccc2n1-c1ccc(F)c(F)c1` (some centres unmarked) [Compound 57], the EC50 in assay [1] is under 500 nM. The IC50 in assay [2] was under 2000 nM.
In the case of `CC(C)c1c([C@H]2CC3(C[C@H](C(=O)O)C3)C2)c2cc(O)ccc2n1-c1ccc(F)c(F)c1` (some centres unmarked) [Compound 58], in assay [1], the concentration for a half-maximal effect (EC50) was in the range of 500 to 2000 nM. Moreover, the 50% inhibitory concentration (IC50) in assay [2] was in the range of 2000 to 5000 nM.
In the same order, the values of `Cc1cc(-n2c(C(C)C)c(CCC(F)(F)C(=O)O)c3cc(O)ccc32)ccc1F` [Compound 59] are over 2000 nM and over 5000 nM.
For `Cc1cc(-n2c(C(C)C)c([C@H]3C[C@@](C(=O)O)(C(F)(F)F)C3)c3cc(O)ccc32)ccc1F` [Compound 60], in that order: under 500 nM and over 5000 nM.
For `Cc1cc(-n2c(C(C)C)c([C@H]3C[C@](C(=O)O)(C(F)(F)F)C3)c3cc(O)ccc32)ccc1F` [Compound 61], the concentration for a half-maximal effect (EC50) in assay [1] lay within 500 to 2000 nM. The 50% inhibitory concentration (IC50) in assay [2] was over 5000 nM.
For `Cc1cc(-n2c(C(C)C)c(CCC(C)(C)C(=O)O)c3cc(O)ccc32)ccc1F` [Compound 62], in that order: 500 to 2000 nM and over 30000 nM.
In the case of `Cc1cc(-n2c(C(C)C)c([C@H]3C[C@@H](CC(=O)O)C3)c3cc(O)ccc32)ccc1F` [Compound 63], the 50% effective concentration (EC50) in assay [1] was in the range of 500 to 2000 nM. For the same molecule, the IC50 in assay [2] is over 5000 nM.
Take `Cc1cc(-n2c(C(C)C)c(C3CCOC(C(=O)O)C3)c3cc(O)ccc32)ccc1F` (centres unmarked) [Compound 64]: the EC50 in assay [1] is over 2000 nM. In addition, the IC50 in assay [2] was over 30000 nM.
